Measurements from patent US20250171461A1, “STIMULATOR OF INTERFERON GENES (STING) MODULATORS, AND COMPOSITIONS AND METHODS THEREOF” (Geode Therapeutics Inc., priority 2022, published 2025).

Biological target: T1, human HAQ STING isoform (hSTING HAQ) (Homo sapiens, UniProt Q86WV6, G230A/H232R/R293Q/R71H)
T1 construct: THP1 cells express the naturally occurring human HAQ STING isoform (hSTING HAQ); host or cells: THP1
Assay: IFN-β mRNA level in THP1 cells (qPCR, STING agonist cellular activity)
Format: cell-based
Conditions: compound at 3.6 μM, 2 hrs, IFNβ expression normalized against GAPDH by the 2^-ΔΔCT method, DMSO = 1.0
Procedure, shortened: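 THP1 cells were seeded at 9×10^5 per well, incubated overnight, then treated with compound at 3.6 μM final (0.1% DMSO control) for 2 hrs at 37 °C. IFN-β mRNA was measured by SYBR Green qPCR, normalised to GAPDH by the 2^−ΔΔCT method, in triplicate.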

T1 sequence (Q86WV6 whole entry R71H/G230A/H232R/R293Q, canonical isoform): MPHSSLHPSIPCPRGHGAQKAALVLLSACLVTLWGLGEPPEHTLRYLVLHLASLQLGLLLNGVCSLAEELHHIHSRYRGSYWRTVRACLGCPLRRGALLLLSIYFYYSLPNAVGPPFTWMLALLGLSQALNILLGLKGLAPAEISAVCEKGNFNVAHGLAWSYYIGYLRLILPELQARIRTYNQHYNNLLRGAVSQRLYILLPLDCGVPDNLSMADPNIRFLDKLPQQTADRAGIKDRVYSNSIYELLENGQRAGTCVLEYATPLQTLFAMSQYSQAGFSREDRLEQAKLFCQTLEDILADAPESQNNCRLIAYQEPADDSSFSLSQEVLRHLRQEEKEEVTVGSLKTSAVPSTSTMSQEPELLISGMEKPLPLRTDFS

Relative mRNA INFβ/GAPDH THP 1	SMILES
580.9	COc1cc(CN(Cc2cn3c4c(c(C)c(F)cc4c2=O)OCC3C)[C@H]2CCCN(c3ccc(N)nc3)C2)ccn1 (stereo partly drawn) [Compound 57, 6-((((S)-1-(6-aminopyridin-3-yl)piperidin-3-yl)((2-methoxypyridin-4-yl)methyl)amino)methyl)-9-fluoro-3,10-dimethyl-2H-[1,4]oxazino[2,3,4-ij]quinolin-7(3H)-one]
688.4	COc1cc(CN(Cc2cn3c4c(c(C5=CCSCC5)c(F)cc4c2=O)OCC3C)[C@H]2CCCN(c3ccc(N)nc3)C2)ccn1 (stereo partly drawn) [Compound 58, 6-((((S)-1-(6-aminopyridin-3-yl)piperidin-3-yl)((2-methoxypyridin-4-yl)methyl)amino)methyl)-10-(3,6-dihydro-2H-thiopyran-4-yl)-9-fluoro-3-methyl-2H-[1,4]oxazino[2,3,4-ij]quinolin-7(3H)-one]
316.7	COc1cc(CN(Cc2cn3c4c(c(C5=CCN(C6CC6)CC5)c(F)cc4c2=O)OCC3C)[C@H]2CCCN(c3ccc(N)nc3)C2)ccn1 (stereo partly drawn) [Compound 59, 6-((((S)-1-(6-aminopyridin-3-yl)piperidin-3-yl)((2-methoxypyridin-4-yl)methyl)amino)methyl)-10-(1-cyclopropyl-1,2,3,6-tetrahydropyridin-4-yl)-9-fluoro-3-methyl-2H-[1,4]oxazino[2,3,4-ij]quinolin-7(3H)-one]
174.3	COc1cc(CN(Cc2cn3c4c(c(N5CCCCC5=O)c(F)cc4c2=O)OCC3C)[C@H]2CCCN(c3ccc(N)nc3)C2)ccn1 (stereo partly drawn) [Compound 60, 6-((((S)-1-(6-aminopyridin-3-yl)piperidin-3-yl)((2-methoxypyridin-4-yl)methyl)amino)methyl)-9-fluoro-3-methyl-10-(2-oxopiperidin-1-yl)-2H-[1,4]oxazino[2,3,4-ij]quinolin-7(3H)-one]
0.7	COc1cc(CN(Cc2cn3c4c(c(N5CCCCC5=O)c(F)cc4c2=O)OCC3C)[C@H]2CCCN(c3ccc(N)nc3)C2)ccn1 (stereo partly drawn) [Compound 61, 6-((((S)-1-(6-aminopyridin-3-yl)piperidin-3-yl)((2-methoxypyridin-4-yl)methyl)amino)methyl)-9-fluoro-3-methyl-10-(2-oxopiperidin-1-yl)-2H-[1,4]oxazino[2,3,4-ij]quinolin-7(3H)-one]
915.2	COc1cc(CN(Cc2cn3c4c(c(OCc5ccccc5)c(F)cc4c2=O)OCC3C)[C@H]2CCCN(c3ccc(N)nc3)C2)ccn1 (stereo partly drawn) [Compound 62, 6-((((S)-1-(6-aminopyridin-3-yl)piperidin-3-yl)((2-methoxypyridin-4-yl)methyl)amino)methyl)-10-(benzyloxy)-9-fluoro-3-methyl-2H-[1,4]oxazino[2,3,4-ij]quinolin-7(3H)-one]
2.5	COc1cc(CN(Cc2cn3c4c(c(O)c(F)cc4c2=O)OCC3C)[C@H]2CCCN(c3ccc(N)nc3)C2)ccn1 (stereo partly drawn) [Compound 63, 6-((((S)-1-(6-aminopyridin-3-yl)piperidin-3-yl)((2-methoxypyridin-4-yl)methyl)amino)methyl)-9-fluoro-10-hydroxy-3-methyl-2H-[1,4]oxazino[2,3,4-ij]quinolin-7(3H)-one]
7.4	COc1cc(CN(Cc2cn3c4c(c(F)c(F)cc4c2=O)OCC3)[C@H]2CCCN(c3ccc([N+](=O)[O-])nc3)C2)ccn1 [Compound 65, (S)-9,10-difluoro-6-((((2-methoxypyridin-4-yl)methyl)(1-(6-nitropyridin-3-yl)piperidin-3-yl)amino)methyl)-2,3-dihydro-7H-[1,4]oxazino[2,3,4-ij]quinolin-7-one]
6236.9	Nc1ccc(N2CCC[C@H](N(Cc3ccncc3)Cc3cn4c5c(c(F)c(F)cc5c3=O)OCC4)C2)cn1 [Compound 70, (S)-6-(((1-(6-aminopyridin-3-yl)piperidin-3-yl)(pyridin-4-ylmethyl)amino)methyl)-9,10-difluoro-2,3-dihydro-7H-[1,4]oxazino[2,3,4-ij]quinolin-7-one]
6763.7	Cc1cc(CN(Cc2cn3c4c(c(F)c(F)cc4c2=O)OCC3)[C@H]2CCCN(c3ccc(N)nc3)C2)ccn1 [Compound 71, (S)-6-(((1-(6-aminopyridin-3-yl)piperidin-3-yl)((2-methylpyridin-4-yl)methyl)amino)methyl)-9,10-difluoro-2,3-dihydro-7H-[1,4]oxazino[2,3,4-ij]quinolin-7-one]
31.9	Nc1ccc(N2CCC[C@H](N(Cc3ccccc3)Cc3cn4c5c(c(F)c(F)cc5c3=O)OCC4)C2)cn1 [Compound 72, (S)-6-(((1-(6-aminopyridin-3-yl)piperidin-3-yl)(benzyl)amino)methyl)-9,10-difluoro-2,3-dihydro-7H-[1,4]oxazino[2,3,4-ij]quinolin-7-one]
7.9	COc1ccc(CN(Cc2cn3c4c(c(F)c(F)cc4c2=O)OCC3)[C@H]2CCCN(c3ccc(N)nc3)C2)c(OC)c1 [Compound 73, (S)-6-(((1-(6-aminopyridin-3-yl)piperidin-3-yl)(2,4-dimethoxybenzyl)amino)methyl)-9,10-difluoro-2,3-dihydro-7H-[1,4]oxazino[2,3,4-ij]quinolin-7-one]
1.4	Nc1ccc(N2CCC[C@H](N(Cc3ccc(C(F)(F)F)cc3F)Cc3cn4c5c(c(F)c(F)cc5c3=O)OCC4)C2)cn1 [Compound 74, (S)-6-(((1-(6-aminopyridin-3-yl)piperidin-3-yl)(2-fluoro-4-(trifluoromethyl)benzyl)amino)methyl)-9,10-difluoro-2,3-dihydro-7H-[1,4]oxazino[2,3,4-ij]quinolin-7-one]
1.1	Nc1ccc(N2CCC[C@H](N(Cc3ccccn3)Cc3cn4c5c(c(F)c(F)cc5c3=O)OCC4)C2)cn1 [Compound 75, (S)-6-(((1-(6-aminopyridin-3-yl)piperidin-3-yl)(pyridin-2-ylmethyl)amino)methyl)-9,10-difluoro-2,3-dihydro-7H-[1,4]oxazino[2,3,4-ij]quinolin-7-one]
0.8	Nc1ccc(N2CCC[C@H](N(Cc3ccc(Cl)nc3)Cc3cn4c5c(c(F)c(F)cc5c3=O)OCC4)C2)cn1 [Compound 76, (S)-6-(((1-(6-aminopyridin-3-yl)piperidin-3-yl)((6-chloropyridin-3-yl)methyl)amino)methyl)-9,10-difluoro-2,3-dihydro-7H-[1,4]oxazino[2,3,4-ij]quinolin-7-one]
1.3	Nc1ccc(N2CCC[C@H](N(Cc3ccccc3F)Cc3cn4c5c(c(F)c(F)cc5c3=O)OCC4)C2)cn1 [Compound 77, (S)-6-(((1-(6-aminopyridin-3-yl)piperidin-3-yl)(2-fluorobenzyl)amino)methyl)-9,10-difluoro-2,3-dihydro-7H-[1,4]oxazino[2,3,4-ij]quinolin-7-one]

SMILES	Relative mRNA INFβ/GAPDH THP 1
COc1cc(CN(Cc2cn3c4c(c(-c5ccc(CCO)cn5)c(F)cc4c2=O)OCC3C)[C@H]2CCCN(c3ccc(N)nc3)C2)ccn1 (stereo partly drawn) [Compound 64, 6-((((S)-1-(6-aminopyridin-3-yl)piperidin-3-yl)((2-methoxypyridin-4-yl)methyl)amino)methyl)-9-fluoro-10-(5-(2-hydroxyethyl)pyridin-2-yl)-3-methyl-2H-[1,4]oxazino[2,3,4-ij]quinolin-7(3H)-one]	26.6
